Experiments:
[1] = tested on: cocklebur; assay: Test B pre/postemergence cocklebur; format: in vivo, Xanthium strumarium
Outline: (§1)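 Herbicidal effect was estimated by eye on a ten-point control scale after plants spent twelve to sixteen days in a greenhouse following soil or foliar treatment. Foliar sprays targeted plants at one to four leaves; all doses were formulated in a non-phytotoxic solvent with surfactant.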

[2] = tested on: green foxtail; assay: Test E green foxtail; format: in vivo, Setaria viridis; conditions: Preemergence
[3] = tested on: tall mallow; assay: Test D tall mallow; format: in vivo, Malva sylvestris; conditions: Preemergence, 0 to 100 scale
Outline: (§2)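 Values are visual plant-response ratings (0 no injury, 100 complete control) recorded 14 to 21 days after herbicide treatment, using a non-phytotoxic solvent mixture containing surfactant. Preemergence applications went to the surface of pots holding freshly sown seed in sandy loam.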

[4] = tested on: winter wheat; assay: Test E winter wheat; format: in vivo, Triticum aestivum; conditions: Preemergence
[5] = tested on: sandbur; assay: Test D sandbur; format: in vivo, Cenchrus echinatus; conditions: Preemergence, 0 to 100 scale
Outline: as §2

[6] = tested on: surinam grass; assay: Test B pre/postemergence surinam grass; format: in vivo, Brachiaria decumbens
Outline: as §1

[7] = tested on: winter barley; assay: Test E winter barley; format: in vivo, Hordeum vulgare; conditions: Preemergence
[8] = tested on: winter wheat; assay: Test E winter wheat; format: in vivo, Triticum aestivum; conditions: Postemergence, 0 to 100 scale
Outline: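 Visual evaluation versus untreated controls after about 21 to 28 days in the greenhouse. Compound was in a surfactant-containing non-phytotoxic solvent; postemergence plants were treated at the 1- to 4-leaf stage, grown in a 60:40 sandy loam and potting mix blend.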

[9] = tested on: Italian ryegrass; assay: Test E Italian ryegrass; format: in vivo, Lolium multiflorum; conditions: Preemergence
[10] = tested on: Alexandergrass; assay: Test D Alexandergrass; format: in vivo, Brachiaria plantaginea; conditions: Preemergence, 0 to 100 scale
Outline: as §2

[11] = tested on: wild oat; assay: Test E wild oat; format: in vivo, Avena fatua; conditions: Preemergence
[12] = tested on: blackgrass; assay: Test E blackgrass; format: in vivo, Alopecurus myosuroides; conditions: Preemergence
[13] = tested on: crabgrass; assay: Test B pre/postemergence crabgrass; format: in vivo, Digitaria sanguinalis
Outline: as §1

[14] = tested on: corn; assay: Test B pre/postemergence corn; format: in vivo, Zea mays
Outline: as §1

[15] = tested on: goosegrass; assay: Test D goosegrass; format: in vivo, Eleusine indica; conditions: Preemergence, 0 to 100 scale
Outline: as §2

[16] = tested on: Johnson grass; assay: Test D Johnson grass; format: in vivo, Sorghum halepense; conditions: Preemergence, 0 to 100 scale
Outline: as §2

[17] = Postemergence, Rate 125 g/ha, scale of 0 to 10 where 0 is no effect and 10 is complete control
[18] = Preemergence, Rate 62 g/ha, scale of 0 to 10 where 0 is no effect and 10 is complete control
[19] = Preemergence, Rate 125 g/ha, 0 is no effect, 10 is complete control
[20] = Preemergence, Rate 250 g/ha, scale 0 to 10, 0 is no effect, 10 is complete control
[21] = Preemergence, Rate 500 g/ha, scale 0 to 10 (0 no effect, 10 complete control)
[22] = Rate 62 g/ha, Postemergence, scale of 0 to 10 where 0 is no effect and 10 is complete control
[23] = Rate 250 g/ha, Postemergence, scale 0 to 10, 0 is no effect, 10 is complete control
[24] = Rate 500 g/ha, Postemergence, scale 0 to 10
[25] = Rate 62 g/ha, 0 to 100 scale, 0 no effect, 100 complete control
[26] = Rate 125 g/ha, 0 to 100 scale (0 no effect, 100 complete control)
[27] = Rate 16 g/ha, 0 no injury, 100 complete control
[28] = Rate 32 g/ha, 0 no injury, 100 complete control
[29] = Rate 64 g/ha, 0 no injury, 100 complete control
[30] = Rate 125 g/ha, 0 no injury, 100 complete control

Structure (SMILES): CC(C)N(C(=O)n1oc(=O)n(N(C)C)c1=O)c1ccc(F)cc1 [Compound 170]
- Cocklebur plant response rating [1, 17]: 0
- Cocklebur plant response rating [1, 18]: 0
- Cocklebur plant response rating (0 to 10 scale) [1, 19]: 0
- Cocklebur plant response rating [1, 20]: 0
- Cocklebur plant response rating [1, 21]: 9
- Cocklebur plant response rating [1, 22]: 0
- Plant response rating, Cocklebur [1, 23]: 0
- Cocklebur plant response rating [1, 24]: 0
- Plant response rating, Green foxtail [2, 25]: 100
- Plant response rating, Green foxtail [2, 26]: 100
- Green foxtail plant response rating (0 to 100 scale) ([2]; Rate 250 g/ha): 100
- Plant response rating, Tall Mallow [3, 27]: 30
- Plant response rating, Tall Mallow [3, 28]: 30
- Tall Mallow plant response rating [3, 29]: 30
- Tall Mallow plant response rating [3, 30]: 30
- Plant response rating, Tall Mallow ([3]; Rate 250 g/ha): 40
- Plant response rating, Tall Mallow ([3]; Rate 500 g/ha): 45
- Plant response rating, Wheat (winter) [4, 25]: 70
- Plant response rating, Wheat (winter) [4, 26]: 70
- Wheat (winter) plant response rating (0 to 100 scale) ([4]; Rate 250 g/ha): 70
- Plant response rating, Sandbur [5, 27]: 0
- Plant response rating, Sandbur [5, 28]: 0
- Sandbur plant response rating [5, 29]: 40
- Sandbur plant response rating [5, 30]: 40
- Plant response rating, Sandbur ([5]; Rate 250 g/ha): 40
- Plant response rating, Sandbur ([5]; Rate 500 g/ha): 98
- B. signalgrass plant response rating [6, 17]: 6
- B. signalgrass plant response rating [6, 18]: 2
- B. signalgrass plant response rating (0 to 10 scale) [6, 19]: 9
- B. signalgrass plant response rating [6, 20]: 10
- B. signalgrass plant response rating [6, 21]: 10
- B. signalgrass plant response rating [6, 22]: 3
- Plant response rating, B. signalgrass [6, 23]: 9
- B. signalgrass plant response rating ([6]; Rate 500 g/ha, Postemergence, scale 0 to 10, 0 no effect, 10 complete control): 10
- Plant response rating, Barley (winter) [7, 25]: 60
- Plant response rating, Barley (winter) [7, 26]: 60
- Barley (winter) plant response rating (0 to 100 scale) ([7]; Rate 250 g/ha): 70
- Plant response rating, Wheat (winter) ([8]; Rate 62 g/ha): 80
- Plant response rating, Wheat (winter) ([8]; Rate 125 g/ha): 75
- Plant response rating, I. Ryegrass [9, 25]: 60
- Plant response rating, I. Ryegrass [9, 26]: 70
- I. Ryegrass plant response rating (0 to 100 scale) ([9]; Rate 250 g/ha): 70
- Plant response rating, Alexandergrass [10, 27]: 20
- Plant response rating, Alexandergrass [10, 28]: 20
- Plant response rating, Alexandergrass [10, 29]: 30
- Plant response rating, Alexandergrass [10, 30]: 85
- Plant response rating, Alexandergrass ([10]; Rate 250 g/ha): 98
- Plant response rating, Alexandergrass ([10]; Rate 500 g/ha): 100
- Plant response rating, Wild oat [11, 25]: 65
- Plant response rating, Wild oat [11, 26]: 70
- Wild oat plant response rating (0 to 100 scale) ([11]; Rate 250 g/ha): 70
- Plant response rating, Blackgrass [12, 25]: 60
- Plant response rating, Blackgrass [12, 26]: 60
- Blackgrass plant response rating (0 to 100 scale) ([12]; Rate 250 g/ha): 85
- Crabgrass plant response rating [13, 17]: 9
- Crabgrass plant response rating [13, 18]: 8
- Crabgrass plant response rating (0 to 10 scale) [13, 19]: 10
- Crabgrass plant response rating [13, 20]: 10
- Crabgrass plant response rating [13, 21]: 10
- Crabgrass plant response rating [13, 22]: 8
- Plant response rating, Crabgrass [13, 23]: 9
- Crabgrass plant response rating [13, 24]: 9
- Corn plant response rating [14, 17]: 0
- Corn plant response rating [14, 18]: 0
- Corn plant response rating (0 to 10 scale) [14, 19]: 2
- Corn plant response rating [14, 20]: 6
- Corn plant response rating [14, 21]: 9
- Corn plant response rating [14, 22]: 0
- Plant response rating, Corn [14, 23]: 0
- Corn plant response rating [14, 24]: 0
- Plant response rating, Goosegrass [15, 27]: 50
- Plant response rating, Goosegrass [15, 28]: 65
- Plant response rating, Goosegrass [15, 29]: 75
- Plant response rating, Goosegrass [15, 30]: 75
- Plant response rating, Goosegrass ([15]; Rate 250 g/ha): 98
- Plant response rating, Goosegrass ([15]; Rate 500 g/ha): 100
- Plant response rating, Johnsongrass [16, 27]: 0
- Plant response rating, Johnsongrass [16, 28]: 0
- Plant response rating, Johnsongrass [16, 29]: 0
- Plant response rating, Johnsongrass [16, 30]: 75
- Plant response rating, Johnsongrass ([16]; Rate 250 g/ha): 100
- Plant response rating, Johnsongrass ([16]; Rate 500 g/ha): 95

Reference: patent US6737383B1, “Herbicidal oxadiazolidines” (priority 1999, dated 2004)
